Data as given in patent US20020111274A1, “1-alkyl-3-[1-(substituted phenyl) benzotriazol-6-yl] uracils” (BASF Aktiengesellschaft, priority 2000, published 2002).

Legend:
Parameters in all cases: scale not given here
[1] = tested on: SETVI Foxtail, Green; assay: Preemergence herbicidal evaluation, SETVI; assay type: in vivo, Setaria viridis, (L.) Beau; conditions: preemergence
Outline: (§1)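 Visual ratings were taken four to five weeks after application. Before that, cups sown with seed in potting soil received a spray of compound dissolved in aqueous acetone, equivalent to about 0.013 to 0.800 kg/ha, and stood on greenhouse benches under conventional care.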

[2] = tested on: GLXMAW Soybean, Williams; assay: Preemergence herbicidal evaluation, GLXMAW; assay type: in vivo, Glycine max, (L.) Merr. cv Williams; conditions: preemergence
Outline: as §1

[3] = tested on: ORYSAT Rice, Tebonnet; assay: Preemergence herbicidal evaluation, ORYSAT; assay type: in vivo, Oryza sativa, (L.); conditions: preemergence
Outline: as §1

[4] = tested on: TRZAWR Wheat, Winter, cv Riband; assay: Postemergence herbicidal evaluation, TRZAWR; assay type: in vivo, Triticum aestivum; conditions: postemergence spray, rated about two-three weeks after treatment
Outline: (§2)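 Ratings from greenhouse plants scored about two to three weeks after a foliar spray; data from multiple tests averaged. Seedlings about two weeks old received roughly 0.006–0.400 kg/ha active compound in 80/20 acetone/water with 1.0% methylated seed oil.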

[5] = tested on: SETVI Foxtail, Green; assay: Postemergence herbicidal evaluation, SETVI; assay type: in vivo, Setaria viridis, (L.) Beau; conditions: postemergence spray, rated about two-three weeks after treatment
Outline: as §2

[6] = tested on: CHEAL Lambsquarters, Common; assay: Preemergence herbicidal evaluation, CHEAL; assay type: in vivo, Chenopodium album, L.; conditions: preemergence
Outline: as §1

[7] = tested on: ABUTH Velvetleaf; assay: Postemergence herbicidal evaluation, ABUTH; assay type: in vivo, Abutilon theophrasti, Medic.; conditions: postemergence spray, rated about two-three weeks after treatment
Outline: as §2

[8] = tested on: ORYSAT Rice, Tebonnet; assay: Postemergence herbicidal evaluation, ORYSAT; assay type: in vivo, Oryza sativa, (L.); conditions: postemergence spray, rated about two-three weeks after treatment
Outline: as §2

[9] = tested on: ZEAMX Corn, Field; assay: Preemergence herbicidal evaluation, ZEAMX; assay type: in vivo, Zea mays, L. (Sammel-Bezeichnung); conditions: preemergence
Outline: as §1

[10] = tested on: GALAP Galium; assay: Postemergence herbicidal evaluation, GALAP; assay type: in vivo, Galium aparine; conditions: postemergence spray, rated about two-three weeks after treatment
Outline: as §2

[11] = tested on: CHEAL Lambsquarters, Common; assay: Postemergence herbicidal evaluation, CHEAL; assay type: in vivo, Chenopodium album, L.; conditions: postemergence spray, rated about two-three weeks after treatment
Outline: as §2

[12] = tested on: IPOHE Morningglory, Ivyleaf; assay: Preemergence herbicidal evaluation, IPOHE; assay type: in vivo, Ipomoea hederacea, (L.) Jacq.; conditions: preemergence
Outline: as §1

[13] = tested on: ZEAMX Corn, Field; assay: Postemergence herbicidal evaluation, ZEAMX; assay type: in vivo, Zea mays, L. (Sammel-Bezeichnung); conditions: postemergence spray, rated about two-three weeks after treatment
Outline: as §2

[14] = tested on: CASOB Sicklepod; assay: Postemergence herbicidal evaluation, CASOB; assay type: in vivo, Cassia obtusifolia, L.; conditions: postemergence spray, rated about two-three weeks after treatment
Outline: as §2

[15] = tested on: IPOHE Morningglory, Ivyleaf; assay: Postemergence herbicidal evaluation, IPOHE; assay type: in vivo, Ipomoea hederacea, (L.) Jacq.; conditions: postemergence spray, rated about two-three weeks after treatment
Outline: as §2

[16] = tested on: ECHOG Barnyardgrass; assay: Postemergence herbicidal evaluation, ECHOG; assay type: in vivo, Echinochloa crus-galli, (L.) Beau; conditions: postemergence spray, rated about two-three weeks after treatment
Outline: as §2

[17] = tested on: AMBEL Ragweed, Common; assay: Postemergence herbicidal evaluation, AMBEL; assay type: in vivo, Ambrosia artemisifolia, L.; conditions: postemergence spray, rated about two-three weeks after treatment
Outline: as §2

[18] = tested on: CASOB Sicklepod; assay: Preemergence herbicidal evaluation, CASOB; assay type: in vivo, Cassia obtusifolia, L.; conditions: preemergence
Outline: as §1

[19] = tested on: ECHOG Barnyardgrass; assay: Preemergence herbicidal evaluation, ECHOG; assay type: in vivo, Echinochloa crus-galli, (L.) Beau; conditions: preemergence
Outline: as §1

[20] = tested on: ABUTH Velvetleaf; assay: Preemergence herbicidal evaluation, ABUTH; assay type: in vivo, Abutilon theophrasti, Medic.; conditions: preemergence
Outline: as §1

[21] = tested on: GLXMAW Soybean, Williams; assay: Postemergence herbicidal evaluation, GLXMAW; assay type: in vivo, Glycine max, (L.) Merr. cv Williams; conditions: postemergence spray, rated about two-three weeks after treatment
Outline: as §2

[22] = tested on: TRZAWR Wheat, Winter, cv Riband; assay: Preemergence herbicidal evaluation, TRZAWR; assay type: in vivo, Triticum aestivum; conditions: preemergence
Outline: as §1

[23] = tested on: AMBEL Ragweed, Common; assay: Preemergence herbicidal evaluation, AMBEL; assay type: in vivo, Ambrosia artemisifolia, L.; conditions: preemergence
Outline: as §1

[24] = tested on: GALAP Galium; assay: Preemergence herbicidal evaluation, GALAP; assay type: in vivo, Galium aparine; conditions: preemergence
Outline: as §1

Cc1ccc(O)cc1-n1nnc2cc(F)c(-n3c(=O)cc(C(F)(F)F)n(C)c3=O)cc21 [Example 32]
6.0: CHEAL herbicidal rating ([6]; rate 0.125 kg/ha)
2.5: Postemergence herbicidal rating TRZAWR ([4]; 0.016 kg/ha) | Postemergence herbicidal rating TRZAWR ([4]; 0.032 kg/ha) | Postemergence herbicidal rating ZEAMX ([13]; 0.016 kg/ha) | Postemergence herbicidal rating ZEAMX ([13]; 0.032 kg/ha) | Postemergence herbicidal rating ZEAMX ([13]; 0.062 kg/ha) | Postemergence herbicidal rating GLXMAW ([21]; 0.016 kg/ha)
0.0: SETVI herbicidal rating ([1]; rate 0.016 kg/ha) | SETVI herbicidal rating ([1]; rate 0.032 kg/ha) | SETVI herbicidal rating ([1]; rate 0.062 kg/ha) | SETVI herbicidal rating ([1]; rate 0.125 kg/ha) | GLXMAW herbicidal rating ([2]; rate 0.016 kg/ha) | GLXMAW herbicidal rating ([2]; rate 0.032 kg/ha) | GLXMAW herbicidal rating ([2]; rate 0.062 kg/ha) | ORYSAT herbicidal rating ([3]; rate 0.016 kg/ha) | ORYSAT herbicidal rating ([3]; rate 0.032 kg/ha) | ORYSAT herbicidal rating ([3]; rate 0.062 kg/ha) | ORYSAT herbicidal rating ([3]; rate 0.125 kg/ha) | Postemergence herbicidal rating SETVI ([5]; 0.008 kg/ha) | Postemergence herbicidal rating SETVI ([5]; 0.016 kg/ha) | Postemergence herbicidal rating SETVI ([5]; 0.032 kg/ha) | Postemergence herbicidal rating SETVI ([5]; 0.062 kg/ha) | CHEAL herbicidal rating ([6]; rate 0.016 kg/ha) | CHEAL herbicidal rating ([6]; rate 0.032 kg/ha) | CHEAL herbicidal rating ([6]; rate 0.062 kg/ha) | Postemergence herbicidal rating ABUTH ([7]; 0.008 kg/ha) | Postemergence herbicidal rating ABUTH ([7]; 0.016 kg/ha) | Postemergence herbicidal rating ABUTH ([7]; 0.032 kg/ha) | ZEAMX herbicidal rating ([9]; rate 0.016 kg/ha) | ZEAMX herbicidal rating ([9]; rate 0.032 kg/ha) | ZEAMX herbicidal rating ([9]; rate 0.062 kg/ha) | Postemergence herbicidal rating GALAP ([10]; 0.008 kg/ha) | Postemergence herbicidal rating GALAP ([10]; 0.016 kg/ha) | Postemergence herbicidal rating GALAP ([10]; 0.032 kg/ha) | Postemergence herbicidal rating GALAP ([10]; 0.062 kg/ha) | Postemergence herbicidal rating CHEAL ([11]; 0.008 kg/ha) | Postemergence herbicidal rating CHEAL ([11]; 0.016 kg/ha) | Postemergence herbicidal rating CHEAL ([11]; 0.032 kg/ha) | Postemergence herbicidal rating CHEAL ([11]; 0.062 kg/ha) | IPOHE herbicidal rating ([12]; rate 0.016 kg/ha) | IPOHE herbicidal rating ([12]; rate 0.032 kg/ha) | IPOHE herbicidal rating ([12]; rate 0.062 kg/ha) | IPOHE herbicidal rating ([12]; rate 0.125 kg/ha) | Postemergence herbicidal rating CASOB ([14]; 0.008 kg/ha) | Postemergence herbicidal rating CASOB ([14]; 0.016 kg/ha) | Postemergence herbicidal rating CASOB ([14]; 0.032 kg/ha) | Postemergence herbicidal rating CASOB ([14]; 0.062 kg/ha) | Postemergence herbicidal rating IPOHE ([15]; 0.008 kg/ha) | Postemergence herbicidal rating IPOHE ([15]; 0.016 kg/ha) | Postemergence herbicidal rating IPOHE ([15]; 0.032 kg/ha) | Postemergence herbicidal rating IPOHE ([15]; 0.062 kg/ha) | Postemergence herbicidal rating ECHCG ([16]; 0.008 kg/ha) | Postemergence herbicidal rating ECHCG ([16]; 0.016 kg/ha) | Postemergence herbicidal rating ECHCG ([16]; 0.032 kg/ha) | Postemergence herbicidal rating ECHCG ([16]; 0.062 kg/ha) | Postemergence herbicidal rating AMBEL ([17]; 0.008 kg/ha) | Postemergence herbicidal rating AMBEL ([17]; 0.016 kg/ha) | Postemergence herbicidal rating AMBEL ([17]; 0.032 kg/ha) | Postemergence herbicidal rating AMBEL ([17]; 0.062 kg/ha) | CASOB herbicidal rating ([18]; rate 0.016 kg/ha) | CASOB herbicidal rating ([18]; rate 0.032 kg/ha) | CASOB herbicidal rating ([18]; rate 0.062 kg/ha) | CASOB herbicidal rating ([18]; rate 0.125 kg/ha) | ECHCG herbicidal rating ([19]; rate 0.016 kg/ha) | ECHCG herbicidal rating ([19]; rate 0.032 kg/ha) | ECHCG herbicidal rating ([19]; rate 0.062 kg/ha) | ECHCG herbicidal rating ([19]; rate 0.125 kg/ha) | ABUTH herbicidal rating ([20]; rate 0.016 kg/ha) | ABUTH herbicidal rating ([20]; rate 0.032 kg/ha) | ABUTH herbicidal rating ([20]; rate 0.062 kg/ha) | TRZAWR herbicidal rating ([22]; rate 0.016 kg/ha) | TRZAWR herbicidal rating ([22]; rate 0.032 kg/ha) | TRZAWR herbicidal rating ([22]; rate 0.062 kg/ha) | TRZAWR herbicidal rating ([22]; rate 0.125 kg/ha) | AMBEL herbicidal rating ([23]; rate 0.016 kg/ha) | AMBEL herbicidal rating ([23]; rate 0.032 kg/ha) | AMBEL herbicidal rating ([23]; rate 0.062 kg/ha) | AMBEL herbicidal rating ([23]; rate 0.125 kg/ha) | GALAP herbicidal rating ([24]; rate 0.016 kg/ha) | GALAP herbicidal rating ([24]; rate 0.032 kg/ha) | GALAP herbicidal rating ([24]; rate 0.062 kg/ha)
3.0: Postemergence herbicidal rating TRZAWR ([4]; 0.062 kg/ha) | Postemergence herbicidal rating GLXMAW ([21]; 0.032 kg/ha) | Postemergence herbicidal rating GLXMAW ([21]; 0.062 kg/ha)
4.0: Postemergence herbicidal rating ABUTH ([7]; 0.062 kg/ha) | ABUTH herbicidal rating ([20]; rate 0.125 kg/ha)
2.0: Postemergence herbicidal rating ORYSAT ([8]; 0.062 kg/ha) | Postemergence herbicidal rating ZEAMX ([13]; 0.008 kg/ha) | Postemergence herbicidal rating GLXMAW ([21]; 0.008 kg/ha)
1.5: Postemergence herbicidal rating ORYSAT ([8]; 0.016 kg/ha) | Postemergence herbicidal rating ORYSAT ([8]; 0.032 kg/ha)
1.0: GLXMAW herbicidal rating ([2]; rate 0.125 kg/ha) | Postemergence herbicidal rating TRZAWR ([4]; 0.008 kg/ha) | Postemergence herbicidal rating ORYSAT ([8]; 0.008 kg/ha) | ZEAMX herbicidal rating ([9]; rate 0.125 kg/ha)
